According to ChEMBL document CHEMBL4043281, “Development of a peptide-based inducer of protein degradation targeting NOTCH1” (Bioorg Med Chem Lett, 2017):
Calls of active or inactive are those of the source. The rule behind the calls is not given here. Positions of bridges follow the written chain, without caps; N, C: chain ends. Non-standard residues stand in square brackets, D forms with d. Residues, ends and D or L forms follow the SMILES beside them. Dip = N[C@H](C(=O)O)C(c1ccccc1)c1ccccc1; Chg = N[C@H](C(=O)O)C1CCCCC1; S5 = C=CCCC[C@](C)(N)C(=O)O; NMeA = CN[C@@H](C)C(=O)O; AEEA = NCCOCCOCC(=O)O; βAla = NCCC(=O)O

What was measured:
MOLT-4 [1] = assay: Induction of CSL protein degradation in human MOLT4 cells assessed as ratio of CSL to lamin protein level at 100 uM after 6 hrs by Western blot analysis (reference value: 100%); type: functional
Homo sapiens [2] = species on record: Homo sapiens; assay: Induction of IAP-mediated NOTCH1 protein degradation in human MOLT4 cells assessed as ratio of NOTCH1 to lamin protein level at 100 uM after 6 hrs by Western blot analysis (reference value: 100%); type: cell-based
MOLT-4 [3] = assay: Cytotoxicity against human MOLT4 cells at >100 uM; type: cell-based
Homo sapiens [4] = species on record: Homo sapiens; assay: Induction of IAP-mediated NOTCH1 protein degradation in human MOLT4 cells assessed as ratio of NOTCH1 to lamin protein level at 50 uM after 6 hrs by Western blot analysis (reference value: 100%); type: cell-based
MOLT-4 [5] = assay: Induction of CSL protein degradation in human MOLT4 cells assessed as ratio of CSL to lamin protein level at 50 uM after 6 hrs by Western blot analysis (reference value: 100%); type: functional
MOLT-4 [6] = assay: Induction of CSL protein degradation in human MOLT4 cells assessed as ratio of CSL to lamin protein level at 20 uM after 6 hrs by Western blot analysis (reference value: 100%); type: functional
Homo sapiens [7] = species on record: Homo sapiens; assay: Induction of IAP-mediated NOTCH1 protein degradation in human MOLT4 cells assessed as ratio of NOTCH1 to lamin protein level at 20 uM after 6 hrs by Western blot analysis (reference value: 100%); type: cell-based
Homo sapiens [8] = species on record: Homo sapiens; assay: Antagonist activity IAP in human MOLT4 cells assessed as reduction in cIAP1 protein level at 50 to 80 uM after 6 hrs by Western blot analysis; type: cell-based
MOLT-4 [9] = assay: Induction of CSL protein degradation in human MOLT4 cells assessed as ratio of CSL to lamin protein level at 70 uM after 6 hrs by Western blot analysis (reference value: 100%); type: functional
Homo sapiens [10] = species on record: Homo sapiens; assay: Induction of IAP-mediated NOTCH1 protein degradation in human MOLT4 cells assessed as ratio of NOTCH1 to lamin protein level at 70 uM after 6 hrs by Western blot analysis (reference value: 100%); type: cell-based
Homo sapiens [11] = species on record: Homo sapiens; assay: Induction of IAP-mediated NOTCH1 protein degradation in human MOLT4 cells assessed as ratio of NOTCH1 to lamin protein level at 80 uM after 6 hrs by Western blot analysis (reference value: 100%); type: cell-based
MOLT-4 [12] = assay: Induction of CSL protein degradation in human MOLT4 cells assessed as ratio of CSL to lamin protein level at 80 uM after 6 hrs by Western blot analysis (reference value: 100%); type: functional
Homo sapiens [13] = species on record: Homo sapiens; assay: Induction of IAP-mediated NOTCH1 protein degradation in human MOLT4 cells assessed as ratio of NOTCH1 to lamin protein level at 60 uM after 6 hrs by Western blot analysis (reference value: 100%); type: cell-based
MOLT-4 [14] = assay: Induction of CSL protein degradation in human MOLT4 cells assessed as ratio of CSL to lamin protein level at 60 uM after 6 hrs by Western blot analysis (reference value: 100%); type: functional

Compound | Ratio (MOLT-4 [1]) [%] | Ratio (Homo sapiens [2]) [%] | Activity (MOLT-4 [3]) | Ratio (Homo sapiens [4]) [%] | Ratio (MOLT-4 [5]) | Ratio (MOLT-4 [6]) [%] | Ratio (Homo sapiens [7]) [%] | inhibition (Homo sapiens [8]) | Ratio (MOLT-4 [9]) [%] | Ratio (Homo sapiens [10]) [%] | Ratio (Homo sapiens [11]) [%] | Ratio (MOLT-4 [12]) [%] | Ratio (Homo sapiens [13]) [%] | Ratio (MOLT-4 [14]) [%]
CC[C@H](C)[C@H](NC(=O)[C@H](CCCNC(=N)N)NC(=O)[C@H](CCCNC(=N)N)NC(=O)[C@H](CCCNC(=N)N)NC(=O)[C@H](CC(C)C)NC(=O)[C@H](CCCNC(=N)N)NC(=O)[C@H](CCC(=O)O)NC(=O)CCN)C(=O)N[C@@]1(C)CCC/C=C\CCC[C@@](C)(C(=O)N[C@@H](CCCNC(=N)N)C(=O)N[C@@H](Cc2cnc[nH]2)C(=O)N[C@@H](Cc2cnc[nH]2)C(=O)N[C@@H](CO)C(=O)N[C@H](C(=O)O)[C@@H](C)O)NC(=O)[C@H](CS)NC(=O)[C@H](CC(C)C)NC1=O (H-[βAla]ERLRRRI[S5]LC[S5]RHHST-OH; staple (Z) 9-12) | 93 | 103 | Toxic | 105 | 94% | 105 | 101 |  |  |  |  |  |  | 
CC[C@H](C)[C@H](NC(=O)[C@H](CCCNC(=N)N)NC(=O)[C@H](CCCNC(=N)N)NC(=O)[C@H](CCCNC(=N)N)NC(=O)[C@H](CC(C)C)NC(=O)[C@H](CCCNC(=N)N)NC(=O)[C@H](CCC(=O)O)NC(=O)CCN)C(=O)N[C@@H](CCC(=O)O)C(=O)N[C@@H](CC(C)C)C(=O)N[C@@H](CS)C(=O)N[C@@H](CCCNC(=N)N)C(=O)N[C@@H](CCCNC(=N)N)C(=O)N[C@@H](Cc1cnc[nH]1)C(=O)N[C@@H](Cc1cnc[nH]1)C(=O)N[C@@H](CO)C(=O)N[C@H](C(=O)O)[C@@H](C)O (H-[βAla]ERLRRRIELCRRHHST-OH) | 113 | 108 | Toxic | 118 | 115% | 107 | 101 |  |  |  |  |  |  | 
CC[C@H](C)[C@H](NC(=O)[C@H](CCCNC(=N)N)NC(=O)[C@H](CCCNC(=N)N)NC(=O)[C@H](CCCNC(=N)N)NC(=O)[C@H](CC(C)C)NC(=O)[C@H](CCCNC(=N)N)NC(=O)[C@H](CCC(=O)O)NC(=O)CCNC(=O)COCCOCCNC(=O)[C@@H](NC(=O)[C@@H]1CCCN1C(=O)[C@@H](NC(=O)[C@H](C)NC)C1CCCCC1)C(c1ccccc1)c1ccccc1)C(=O)N[C@@]1(C)CCC/C=C\CCC[C@@](C)(C(=O)N[C@@H](CCCNC(=N)N)C(=O)N[C@@H](Cc2cnc[nH]2)C(=O)N[C@@H](Cc2cnc[nH]2)C(=O)N[C@@H](CO)C(=O)N[C@H](C(=O)O)[C@@H](C)O)NC(=O)[C@H](CS)NC(=O)[C@H](CC(C)C)NC1=O (H-[NMeA][Chg]P[Dip][AEEA][βAla]ERLRRRI[S5]LC[S5]RHHST-OH; staple (Z) 14-17) | 115 | 74 | Toxic | 87 to 99 | 105 - 108% | 105 | 105 | Active | 115 | 99 | 77 | 102 | 106 | 104
